Reference: patent US6359003B1 (Fumapharm AG, priority 1998, dated 2002)

Legend:
[1] = high dosages; parenterally, transdermally and especially perorally; cited from earlier work
[2] = test system: acute rejection of the graft (host-versus-graft reaction), rat kidney transplantation model; assay: Acute rejection model, rat kidney transplantation; format: in vivo; conditions: 33.3 mg/kg/day, day -28 to +28
Description: (§1) The effect of calcium methyl fumarate for alleviating the host-versus-graft reaction both in acute and chronic rejection models was investigated on a rat kidney transplantation model.
In order to investigate the influence of calcium methyl fumarate on the acute rejection of the graft, animal experiments were carried out (on rats). For this purpose, two groups of rats were treated with calcium methyl fumarate (CaMF; dosage: 33.3 mg/kg/day) or a placebo for a total period of 56 days [28 days before the kidney transplantation (−28) to 28 days after transplantation (+28)]. The number of animals with results fit for evaluation were n=9 in the placebo group and n=12 in the verum group. After that, the survival time of the animals in days after the transplantation was evaluated.

[3] = test system: chronic rejection (host-versus-graft reaction), rat kidney transplantation model; assay: Chronic rejection model, rat kidney transplantation; format: in vivo; conditions: for Creatinine: serum; for Creatinine / Proteinuria: week 10 after transplantation, cyclosporine 1.5 mg/kg/day s.c. day 0-9
Excerpt: as §1
In order to investigate the effect of calcium methyl fumarate on chronic rejection, three groups of rats received transplants (kidneys) in animal experiments. Groups 1 and 2 received a placebo (group 1) or calcium methyl fumarate (CaMF) (group 2) as active ingredient from day 28 before until day 28 after transplantation. The third group was given CaMF from day 30 to 60 after the kidney transplantation. All animals received cyclosporine from day 0 to 9 after the transplantation. The dosages administered were 1.5 mg/kg/day of cyclosporine (subcutaneously) and 33.3 mg/kg/day of CaMF (perorally).
The effect of the treatment was checked by measuring the creatinine levels in the serum, initially on day 0, 1, 3, 5, and 10 and then once a week, and by observing the urine protein levels which were measured once a week. In groups 1 and 2, n=10 animals each provided results suitable for evaluation; in group 3, n=9.

Ehrlich ascites tumour = conditions: mice; cited from earlier work
[4] = Group 2: 33.3 mg/kg/day perorally day -28 to +28, n=10
[5] = Group 3: 33.3 mg/kg/day perorally day +30 to +60, n=9

Compound: NC(=O)/C=C/C(N)=O [fumaramide]
- Side effects and toxicity [1]: unacceptably severe side effects and high toxicity

Compound: O=C(O)/C(O)=C(\O)C(=O)O [dihydroxyl fumaric acid]
- Side effects and toxicity [1]: unacceptably severe side effects and high toxicity

Compound: N#C/C=C/C#N [fumaronitrile]
- Side effects and toxicity [1]: unacceptably severe side effects and high toxicity

Compound: calcium methyl fumarate [CaMF]
- Average survival time in days versus placebo (in words) [2]: significant increase
- Number of surviving animals ([2]; >100 days after transplantation, n=12): 4
- Average survival time ([2]; after kidney transplantation, n=12): >42.3 ± 41.0 days
- Number of surviving animals ([2]; day 6 after transplantation, n=12): 12
- Number of surviving animals ([2]; day 7 after transplantation, n=12): 12
- Number of surviving animals ([2]; day 8 after transplantation, n=12): 12
- Number of surviving animals ([2]; day 9 after transplantation, n=12): 11
- Number of surviving animals ([2]; day 10 after transplantation, n=12): 10
- Number of surviving animals ([2]; day 12 after transplantation, n=12): 9
- Number of surviving animals ([2]; day 13 after transplantation, n=12): 8
- Number of surviving animals ([2]; day 14 after transplantation, n=12): 7
- Number of surviving animals ([2]; day 16 after transplantation, n=12): 6
- Number of surviving animals ([2]; day 17 after transplantation, n=12): 5
- Number of surviving animals ([2]; day 26 after transplantation, n=12): 5
- Number of surviving animals ([2]; day 27 after transplantation, n=12): 4
- Damage to the kidneys (in words) ([3]; 10 weeks of follow-up, versus placebo): significant inhibition of damage to the kidneys
- Creatinine [3, 4]: 55.7 ± 9.6 µmol/L
- Creatinine [3, 5]: 88.0 ± 42.4 µmol/L
- Proteinuria [3, 4]: 31.8 ± 18.4 mg/24 hrs
- Proteinuria [3, 5]: 52.5 ± 31.6 mg/24 hrs

Compound: O=C(O)/C=C/C(=O)O [Fumaric acid]
- Growth of the Ehrlich ascites tumour (Ehrlich ascites tumour): inhibits the growth
